Bounds are passed on as bounds.

The target in this test is T1, F508del in NIH 3T3 cells (Homo sapiens, UniProt P13569, DEL508-508).
T1 construct: expressed in transfected cells
As to the kind of experiment: 3T3 assay: membrane potential optical assay for F508del correction. The class given is cell-based, mouse. As to conditions: for EC50: F508del NIH 3T3 cells, compound incubation 18-24 hours at 37° C., forskolin activation, read-out: 3T3 EC50; for Emax: NIH3T3, F508del NIH 3T3 cells, efficacy compared to lumacaftor in combination with acutely added 300 nM Ivacaftor, read-out: 3T3 Max Activity (%). An excerpt: a. Membrane Potential Optical Methods for Assaying F508del Modulation Properties of Compounds
The assay utilizes fluorescent voltage sensing dyes to measure changes in membrane potential using a fluorescent plate reader (e.g., FLIPR III, Molecular Devices, Inc.) as a readout for increase in functional F508del in NIH 3T3 cells. The driving force for the response is the creation of a chloride ion gradient in conjunction with channel activation by a single liquid addition step after the cells have previously been treated with compounds and subsequently loaded with a voltage sensing dye.
b. Identification of Corrector Compounds
To identify correctors of F508del, a single-addition HTS assay format was developed. This HTS assay utilizes fluorescent voltage sensing dyes to measure changes in membrane potential on the FLIPR III as a measurement for increase in gating (conductance) of F508del in F508del NIH 3T3 cells. The F508del NIH 3T3 cell cultures were incubated with the corrector compounds at a range of concentrations for 18-24 hours at 37° C., and subsequently loaded with a redistribution dye. The driving force for the response is a Cl^− ion gradient in conjunction with channel activation with forskolin in a single liquid addition step using a fluorescent plate reader such as FLIPR III.
Bath Solution #1: (in mM) NaCl 160, KCl 4.5, CaCl2 2, MgCl2 1, HEPES 10, pH 7.4 with NaOH.
Chloride-free bath solution: Chloride salts in Bath Solution #1 (above) are substituted with gluconate salts.
NIH3T3 mouse fibroblasts stably expressing F508del are used for optical measurements of membrane potential. The cells are maintained at 37° C. in 5% CO2 and 90% humidity in Dulbecco's modified Eagle's medium supplemented with 2 mM glutamine, 10% fetal bovine serum, 1×NEAA, b-ME, 1× pen/strep, and 25 mM HEPES in 175 cm^2 culture flasks. For all optical assays, the cells were seeded at ˜20,000/well in 384-well Matrigel-coated plates. For the correction assays, the cells are cultured at 37° C. with and without compounds for 16-24 hours.

T1 sequence (P13569 with tags, fused parts or gaps DEL508-508): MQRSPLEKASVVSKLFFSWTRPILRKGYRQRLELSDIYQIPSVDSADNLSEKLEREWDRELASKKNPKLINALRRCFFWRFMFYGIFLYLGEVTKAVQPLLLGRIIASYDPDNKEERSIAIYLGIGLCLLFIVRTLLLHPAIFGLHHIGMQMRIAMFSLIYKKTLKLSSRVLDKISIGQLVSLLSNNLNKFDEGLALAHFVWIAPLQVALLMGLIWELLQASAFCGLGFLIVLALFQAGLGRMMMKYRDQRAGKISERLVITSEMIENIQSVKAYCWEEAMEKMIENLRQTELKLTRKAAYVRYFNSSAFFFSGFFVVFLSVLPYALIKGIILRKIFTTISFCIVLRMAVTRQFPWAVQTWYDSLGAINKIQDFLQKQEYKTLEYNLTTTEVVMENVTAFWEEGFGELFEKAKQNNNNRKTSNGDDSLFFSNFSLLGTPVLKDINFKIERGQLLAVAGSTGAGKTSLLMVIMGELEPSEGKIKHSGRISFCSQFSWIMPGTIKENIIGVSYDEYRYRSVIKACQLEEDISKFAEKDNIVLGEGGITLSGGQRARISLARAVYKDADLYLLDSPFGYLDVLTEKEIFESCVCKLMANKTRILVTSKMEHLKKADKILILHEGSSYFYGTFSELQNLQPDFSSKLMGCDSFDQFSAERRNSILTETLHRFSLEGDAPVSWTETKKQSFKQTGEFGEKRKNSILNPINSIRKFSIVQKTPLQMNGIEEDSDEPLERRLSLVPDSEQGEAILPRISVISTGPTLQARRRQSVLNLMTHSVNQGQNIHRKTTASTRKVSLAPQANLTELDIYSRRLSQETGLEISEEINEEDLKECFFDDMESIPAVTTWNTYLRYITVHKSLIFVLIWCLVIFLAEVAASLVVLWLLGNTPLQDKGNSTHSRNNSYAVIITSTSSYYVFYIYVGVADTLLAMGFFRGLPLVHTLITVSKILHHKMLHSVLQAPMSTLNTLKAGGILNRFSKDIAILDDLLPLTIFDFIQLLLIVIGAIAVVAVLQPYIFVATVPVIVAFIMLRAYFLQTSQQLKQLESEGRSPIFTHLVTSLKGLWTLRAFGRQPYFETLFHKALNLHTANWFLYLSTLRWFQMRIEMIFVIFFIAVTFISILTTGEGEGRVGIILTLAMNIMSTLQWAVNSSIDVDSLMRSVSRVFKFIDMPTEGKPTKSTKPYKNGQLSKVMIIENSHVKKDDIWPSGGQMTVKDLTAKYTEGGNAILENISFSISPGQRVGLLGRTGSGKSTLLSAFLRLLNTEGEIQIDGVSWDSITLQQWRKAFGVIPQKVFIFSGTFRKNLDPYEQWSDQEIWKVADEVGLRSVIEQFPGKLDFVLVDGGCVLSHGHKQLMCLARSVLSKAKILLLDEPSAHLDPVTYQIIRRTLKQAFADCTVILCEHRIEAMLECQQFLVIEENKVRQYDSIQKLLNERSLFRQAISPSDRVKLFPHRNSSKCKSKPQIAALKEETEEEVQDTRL

For the compound `Nc1ccccc1-c1cc2nc(n1)NS(=O)(=O)c1cccc(c1)NC(=O)c1cccc(c1)O2` [Compound 83], the EC50 was 3 to 30 µM and the Emax is more than 60%.

As for `Cc1cccc(C)c1-c1cc2nc(n1)NS(=O)(=O)c1cccc(c1)NC(=O)c1cc(ccc1N1CCC(O)CC1)O2` [Compound 100], the EC50 fell in the range of 3 to 30 µM and the Emax was more than 60%.

As to `CC1(C)CCCCC1c1cc2nc(n1)NS(=O)(=O)c1cccc(c1)NC(=O)c1cccc(c1)O2` (stereo not drawn) [Compound 75, 5-(2,2-Dimethylcyclohexyl)-9,9-dioxo-2-oxa-9λ^6-thia-6,8,15,23-tetraazatetracyclo[15.3.1.13,7.110,14]tricosa-1(20),3,5,7(23),10(22),11,13,17(21),18-nonaen-16-one], the EC50 was less than 1 µM and the Emax was more than 60%.

Consider `CNC1CCCCC1N(C)c1ccc2cc1C(=O)Nc1cccc(c1)S(=O)(=O)Nc1nc(cc(-c3c(C)cccc3C)n1)O2` (stereo not drawn) [Compound 102], for which the Emax is 30 to 60%. On to `Cc1cccc(C)c1-c1cc2nc(n1)NS(=O)(=O)c1cccc(c1)NC(=O)C(N)CCO2` (stereo not drawn) [Compound 96], for which the EC50 was 1 to 3 µM and the Emax is more than 60%. Take `O=C1Nc2cccc(c2)S(=O)(=O)Nc2nc(cc(-c3ccco3)n2)Oc2cccc1c2` [Compound 86]: the EC50 lay within 3 to 30 µM and the Emax was more than 60%. The corresponding values for `Cc1cccc(C)c1-c1cc2nc(n1)NS(=O)(=O)c1cccc(c1)NC(=O)c1cc(ccc1NC1CCCC(N)C1)O2` (stereo not drawn) [Compound 101] are 3 to 30 µM and more than 60%.

Regarding `Cc1cccc(C)c1-c1cc2nc(n1)NS(=O)(=O)c1cccc(c1)NC(=O)c1cc(ccc1N1CCNCC1)O2` [Compound 106], the EC50 is 3 to 30 µM and the Emax was more than 60%. With `Cc1cccc(C)c1-c1cc2nc(n1)NS(=O)(=O)c1cccc(c1)NC(=O)c1cc(ccc1NCCN)O2` [Compound 105], the EC50 lay within 1 to 3 µM and the Emax was more than 60%. In the case of `O=C1Nc2cccc(c2)S(=O)(=O)Nc2nc(cc(-c3ccccc3)n2)Oc2cccc1c2` [Compound 82], the EC50 is 1 to 3 µM and the Emax was more than 60%.

Turning to `Cc1ccccc1-c1cc2nc(n1)NS(=O)(=O)c1cccc(c1)N(C)C(=O)c1ccc(cc1)O2` [Compound 113], the Emax was less than 30%.

With `Cc1cccc(C)c1-c1cc2nc(n1)NS(=O)(=O)c1cccc(c1)NC(=O)c1cccc(c1C)O2` (racemic) [Compound 59, 5-(2,6-Dimethylphenyl)-21-methyl-9,9-dioxo-2-oxa-9λ^6-thia-6,8,15,23-tetraazatetracyclo[15.3.1.13,7.110,14]tricosa-1(20),3,5,7(23),10(22),11,13,17(21),18-nonaen-16-one], the EC50 is less than 1 µM and the Emax was more than 60%. Consider `Cc1cccc(C)c1-c1cc2nc(n1)NS(=O)(=O)c1cccc(c1)NC(=O)[C@H]1C[C@@H](CN(C(=O)OC(C)(C)C)C1)O2` (single isomer, unassigned) [Compound 4], for which the concentration for a half-maximal effect (EC50) was less than 1 µM and the Emax was more than 60%. Take `Cc1cccc(C)c1-c1cc2nc(n1)NS(=O)(=O)c1cccc(c1)NC(=O)c1cc(ccc1NC1CCCCC1N)O2` (stereo not drawn) [Compound 103]: the EC50 lay within 1 to 3 µM and the Emax is more than 60%. The corresponding values for `Cc1cccc(C)c1-c1cc2nc(n1)NS(=O)(=O)c1cccc(c1)NC(=O)c1cccc(c1)CCO2` [Compound 94] are 1 to 3 µM and 30 to 60%. For the compound `Cc1nn(C)c(C)c1-c1cc2nc(n1)NS(=O)(=O)c1cccc(c1)NC(=O)c1cccc(c1)O2` [Compound 85], the Emax is less than 30%. With `CNCCN(C)c1ccc2cc1C(=O)Nc1cccc(c1)S(=O)(=O)Nc1nc(cc(-c3c(C)cccc3C)n1)O2` [Compound 104], the EC50 was in the range of 3 to 30 µM and the Emax was 30 to 60%. In the case of `Cc1cccc(C)c1-c1cc2nc(n1)NS(=O)(=O)c1cccc(c1)NC(=O)CCCCCO2` [Compound 97], the EC50 was less than 1 µM and the Emax was more than 60%.

Usually EC50 stands for the concentration that produces a half-maximal response.

These data come from patent US20230416275A1, “MODULATORS OF CYSTIC FIBROSIS TRANSMEMBRANE CONDUCTANCE REGULATOR” (VERTEX PHARMACEUTICALS INCORPORATED, priority 2020, published 2023).
